Measurements reported in patent US4564612A, “Condensed, seven-membered ring compounds and their use” (Takeda Chemical Industries, Ltd., priority 1983, dated 1986).
Where a name gives a salt, the structure may show the parent alone. Read-outs that look alike come from different tables or passages of the source.

Tests used:
[1] = biological target: T1, Angiotensin I Converting Enzyme (ACE) (Oryctolagus cuniculus, UniProt P12822); assay: Inhibition of Angiotensin I Converting Enzyme (ACE), HHL substrate, modified Cushman method; format: biochemical; conditions: read-out: ACE inhibitory activity (%); for inhibition at 1 µM: concentration 1 μM
T1 sequence (P12822 34-1310): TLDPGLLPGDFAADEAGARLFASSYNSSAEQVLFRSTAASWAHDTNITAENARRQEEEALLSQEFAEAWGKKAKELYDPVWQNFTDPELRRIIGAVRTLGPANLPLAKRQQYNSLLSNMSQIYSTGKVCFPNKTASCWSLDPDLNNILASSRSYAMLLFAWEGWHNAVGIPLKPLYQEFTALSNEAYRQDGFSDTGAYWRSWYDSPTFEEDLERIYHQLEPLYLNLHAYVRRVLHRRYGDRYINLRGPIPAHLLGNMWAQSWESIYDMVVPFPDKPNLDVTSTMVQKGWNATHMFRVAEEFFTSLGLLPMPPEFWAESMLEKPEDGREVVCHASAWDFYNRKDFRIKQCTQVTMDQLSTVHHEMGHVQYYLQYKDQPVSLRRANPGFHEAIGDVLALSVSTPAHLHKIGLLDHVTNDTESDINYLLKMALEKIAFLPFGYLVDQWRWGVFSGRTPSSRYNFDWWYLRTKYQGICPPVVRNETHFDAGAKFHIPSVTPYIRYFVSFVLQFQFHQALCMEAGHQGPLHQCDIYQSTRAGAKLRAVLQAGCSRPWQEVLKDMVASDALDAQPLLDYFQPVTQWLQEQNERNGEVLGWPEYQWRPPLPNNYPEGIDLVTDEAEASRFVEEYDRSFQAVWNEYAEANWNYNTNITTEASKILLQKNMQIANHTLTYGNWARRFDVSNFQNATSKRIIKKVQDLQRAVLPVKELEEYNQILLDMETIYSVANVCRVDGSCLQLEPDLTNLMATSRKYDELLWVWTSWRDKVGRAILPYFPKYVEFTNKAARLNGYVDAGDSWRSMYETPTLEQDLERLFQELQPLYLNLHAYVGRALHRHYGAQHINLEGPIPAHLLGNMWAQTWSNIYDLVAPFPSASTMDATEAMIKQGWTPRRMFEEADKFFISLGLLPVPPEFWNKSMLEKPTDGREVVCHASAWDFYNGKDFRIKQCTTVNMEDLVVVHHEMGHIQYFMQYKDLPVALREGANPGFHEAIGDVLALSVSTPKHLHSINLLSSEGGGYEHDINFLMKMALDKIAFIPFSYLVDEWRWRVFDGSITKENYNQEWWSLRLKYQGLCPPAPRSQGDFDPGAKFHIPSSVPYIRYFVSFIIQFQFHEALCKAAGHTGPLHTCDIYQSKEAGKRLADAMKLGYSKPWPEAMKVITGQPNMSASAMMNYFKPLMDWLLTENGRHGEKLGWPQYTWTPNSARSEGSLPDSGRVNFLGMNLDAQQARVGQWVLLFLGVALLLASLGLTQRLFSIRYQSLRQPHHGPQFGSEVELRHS
Protocol: Experiment on Inhibition of Angiotensin I Converting Enzyme (ACE) by the Compounds of this Invention. […] That is, using hippuryl-L-histidyl-L-leucine (HHL) as the substrate, the ACE inhibitory activity was determined in terms of percent inhibition on the amount of hippuric acid produced by ACE when the compound of the present invention was added. […] In this experiment, a borate-HCl buffer solution containing dimethylsulfoxide at a concentration equal to that of the test solution was used as a control. After warming the solution at 37° C. for 1 hour, 150 μl of 1N hydrochloric acid was added to the solution to terminate the reaction. After 0.8 ml of ethyl acetate was added the solution was centrifuged at 11500 rpm for 2 minutes. A 0.5 ml aliquot was separated from the ethyl acetate layer and dried at a temperature below 40° C. under nitrogen gas streams. The residue was mixed thoroughly with 4.5 ml of distilled water, and the mixture was subjected to colorimetry at a wavelength of 228 nm.

[2] = system: hypertensive reaction by angiotensin I; assay: Effect against hypertensive activity of angiotensin I in rats, intravenous administration; format: in vivo, rats (Sprague-Dawley); conditions: 300 μg/kg i.v., male rats
Protocol: (§1) Effect of the Compounds of the Present Invention against Hypertensive Activity of Angiotensin I.
Male rats (Sprague-Dawley) weighing 300 to 400 g which were fed under free access to drinking water and feed were used as experimental animals. The rats were anesthetized with intraperitoneal administration of pentobarbital sodium (50 mg/kg) on the day before the test day and a polyethylene tube was inserted into each of the femoral artery for measurement of blood pressure and the femoral vein for injection of angiotensin I and II. And the tubes were fixed.
On the test day, an average blood pressure in the control phase was measured by an electric hemodynamometer (MPU-0.5-290-0-III model manufactured by NEC-Sanei, Japan) and recorded by a polygraph (NEC-Sanei, Type 365 or Nippon Kohden Type RM-45, and thereafter angiotensin I and then angiotensin II were injected through the femoral vein at a dose of 300 ng/kg and 100 ng/kg, respectively, to measure the hypertensive activity. […] In calculating the percent inhibition to the hypertensive activity of angiotensin I, the percent inhibitory value was corrected based on the variation with time in the hypertensive reaction by antiotensin II.

[3] = system: hypertensive reaction by angiotensin I; assay: Effect against hypertensive activity of angiotensin I in rats, oral administration; format: in vivo, rats (Sprague-Dawley); conditions: male rats
Protocol: as §1
Male rats (Sprague-Dawley) weighing 250 to 350 g which were fed under free access to drinking water and feed were used as experimental animals. The rats were anesthetized with intraperitoneal administration of pentobarbital sodium (50 mg/kg) on the day before the test day and a polyethylene tube was inserted into each of the femoral artery for measurement of blood pressure and the femoral vein for injection of angiotensin I and II. And the tubes were fixed.
On the test day, an average blood pressure in the control phase was measured by an electric hemodynamometer (MPU-0.5-290-0-III model manufactured by NEC-Sanei, Japan) and recorded by a polygraph (NEC-Sanei, Type 365 or Nippon Kohden Type RM-45), and thereafter angiotensin I and then angiotensin II were injected through the femoral vein at a dose of 300 ng/kg and 100 ng/kg, respectively, to measure the hypertensive activity. Then, 3 and 10 mg/kg of the compound of the present invention were administered orally as an aqueous solution or an aqueous gum arabic suspension, and 20, 60 and 120 minutes after the administration, angiotensin I and II were injected repeatedly to trace hypertensive reactions. In calculating the percent inhibition to the hypertensive activity of angiotensin I, the percent inhibitory value was corrected based on the variation with time in the hypertensive reaction by angiotensin II.

[4] = 10 mg/kg orally, after 120 min.

O=C(O)CN1C(=O)[C@@H](N[C@@H](CCC2CCCCC2)C(=O)O)CSc2ccccc21 [Example 50, 3(R)-[1(S)-carboxy-3-cyclohexylpropyl]amino-4-oxo-2,3,4,5-tetrahydro-1,5-benzothiazepine-5-acetic acid]
inhibition at 0.01 µM ([1]; concentration 0.01 μM): 77%
inhibition at 0.1 µM ([1]; concentration 0.1 μM): 96%

CCOC(=O)[C@H](CCCCCCN)N[C@H]1CSc2ccccc2N(CC(=O)O)C1=O [C2 H5]
Inhibition against hypertensive reaction by angiotensin I (%) ([2]; after 5 min): 97%
Inhibition against hypertensive reaction by angiotensin I (%) ([2]; after 10 min): 97%
Inhibition against hypertensive reaction by angiotensin I (%) ([2]; after 30 min): 100%
Inhibition against hypertensive reaction by angiotensin I (%) ([2]; after 60 min): 96%
Inhibition against hypertensive reaction by angiotensin I (%) ([2]; after 90 min): 87%
Inhibition against hypertensive reaction by angiotensin I (%) ([2]; after 120 min): 73%

CCOC(=O)C(CCc1ccccc1)N[C@H]1CSc2ccccc2N(CC(=O)O)C1=O (some centres unmarked) [Example 6]
inhibition at 0.1 µM ([1]; concentration 0.1 μM): 48%
inhibition at 1 µM [1]: 85%

NCCCCCC[C@H](N[C@H]1CSc2ccccc2N(CC(=O)O)C1=O)C(=O)O [Example 73, 3(R)-[7-amino-1(S)-carboxyheptyl]amino-4-oxo-2,3,4,5-tetrahydro-1,5-benzothiazepine-5-acetic acid]
inhibition at 0.1 µM ([1]; concentration 0.1 μM): 96%
inhibition at 1 µM [1]: 100%

CCOC(=O)[C@H](CCC1CCCCC1)N[C@H]1CSc2ccccc2N(CC(=O)O)C1=O.Cl [Example 9, 3(R)-[1(S)-ethoxycarbonyl-3-cyclohexylpropyl]amino-4-oxo-2,3,4,5-tetrahydro-1,5-benzothiazepine-5-acetic acid hydrochloride]
inhibition at 0.1 µM ([1]; concentration 0.1 μM): 83%
inhibition at 1 µM [1]: 95%
Inhibition against hypertensive reaction by angiotensin I (%) ([3]; 3 mg/kg orally, after 20 min.): 66%
Inhibition against hypertensive reaction by angiotensin I (%) ([3]; 3 mg/kg orally, after 60 min.): 36%
Inhibition against hypertensive reaction by angiotensin I (%) ([3]; 3 mg/kg orally, after 120 min.): 12%
Inhibition against hypertensive reaction by angiotensin I (%) ([3]; 10 mg/kg orally, after 20 min.): 92%
Inhibition against hypertensive reaction by angiotensin I (%) ([3]; 10 mg/kg orally, after 60 min.): 72%
Inhibition against hypertensive reaction by angiotensin I (%) [3, 4]: 68%

O=C(O)CN1C(=O)[C@@H](N[C@@H](CCc2ccccc2)C(=O)O)CSc2ccccc21 [Example 13, 3(R)-[1(S)-carboxy-3-phenylpropyl]amino-4-oxo-2,3,4,5-tetrahydro-1,5-benzothiazepine-5-acetic acid monosodium salt]
inhibition at 0.01 µM [1]: 46%
inhibition at 0.1 µM [1]: 91%

CCOC(=O)[C@H](CCc1ccccc1)N[C@H]1CSc2ccccc2N(CC(=O)O)C1=O.Cl [Example 7, 3(R)-[1(S)-ethoxycarbonyl-3-phenylpropyl]amino-4-oxo-2,3,4,5-tetrahydro-1,5-benzothiazepine-5-acetic acid hydrochloride]
inhibition at 0.1 µM ([1]; concentration 0.1 μM): 53%
inhibition at 1 µM [1]: 86%
Inhibition against hypertensive reaction by angiotensin I (%) ([3]; 3 mg/kg orally, after 20 min.): 85%
Inhibition against hypertensive reaction by angiotensin I (%) ([3]; 3 mg/kg orally, after 60 min.): 51%
Inhibition against hypertensive reaction by angiotensin I (%) ([3]; 3 mg/kg orally, after 120 min.): 27%
Inhibition against hypertensive reaction by angiotensin I (%) ([3]; 10 mg/kg orally, after 20 min.): 85%
Inhibition against hypertensive reaction by angiotensin I (%) ([3]; 10 mg/kg orally, after 60 min.): 68%
Inhibition against hypertensive reaction by angiotensin I (%) [3, 4]: 51%

O=C(O)CN1C(=O)[C@@H](N[C@H](CCc2ccccc2)C(=O)O)CSc2ccccc21 [Example 12, 3(R)-[1(R)-carboxy-3-phenylpropyl]amino-4-2,3,4,5-tetrahydro-1,5-benzothiazepine-5-acetic acid disodium salt]
inhibition at 1 µM [1]: 50%
inhibition at 10 µM ([1]; concentration 10 μM): 86%

NCCCC[C@H](N[C@H]1CSc2ccccc2N(CC(=O)O)C1=O)C(=O)O [Example 60, 3(R)-[5-amino-1(S)-carboxypentyl]amino-4-oxo-2,3,4,5-tetrahydro-1,5-benzothiazepine-5-acetic acid]
inhibition at 0.1 µM ([1]; concentration 0.1 μM): 82%
inhibition at 1 µM [1]: 98%

O=C(O)CN1C(=O)[C@@H](N[C@@H](CCCCNC2CCCCC2)C(=O)O)CSc2ccccc21 [Example 69, 3(R)-[1(S)-carboxy-5-cyclohexylaminopentyl]amino-4-oxo-2,3,4,5-tetrahydro-1,5-benzothiazepine-5-acetic acid]
inhibition at 0.1 µM ([1]; concentration 0.1 μM): 93%
inhibition at 1 µM [1]: 100%

NCCCCCC[C@H](N[C@H]1CSc2ccccc2N(CC(=O)O)C1=O)C(=O)O [H]
Inhibition against hypertensive reaction by angiotensin I (%) ([2]; after 5 min): 100%
Inhibition against hypertensive reaction by angiotensin I (%) ([2]; after 10 min): 97%
Inhibition against hypertensive reaction by angiotensin I (%) ([2]; after 30 min): 97%
Inhibition against hypertensive reaction by angiotensin I (%) ([2]; after 60 min): 91%
Inhibition against hypertensive reaction by angiotensin I (%) ([2]; after 90 min): 78%
Inhibition against hypertensive reaction by angiotensin I (%) ([2]; after 120 min): 48%

CCOC(=O)[C@@H](CCc1ccccc1)N[C@H]1CSc2ccccc2N(CC(=O)O)C1=O [Example 5, 3(R)-[1(R)-ethoxycarbonyl-3-phenylpropyl]amino-4-oxo-2,3,4,5-tetrahydro-1,5-benzothiazepine-5-acetic acid hydrochloride]
inhibition at 0.1 µM ([1]; concentration 0.1 μM): 40%
inhibition at 1 µM [1]: 84%
